Target: telomerase (Homo sapiens, UniProt O14746)
Experiment: Q-TRAP telomerase activity in PC3 prostate cancer cells
Type: cell-based
Parameters: allow the enzymatic addition of telomeric DNA repeats by endogenous telomerase; endogenous in cells; host or cells: PC3 prostate cancer cells (protein extract of lysed cell pellets); key to Significance of RTA difference vs. control: No: non-significant; Yes (*): p < 0.05; Yes (**): p < 0.01; Yes (***): p < 0.001; Yes (****): p < 0.0001
Conditions: for telomerase inhibition effect: PC3 prostate cancer cell line
Description: The general mechanism of the Q-TRAP technique involves cellular pellets being lysed for protein extraction which is then subsequently quantified and stored under specific conditions to avoid protein degradation. Protein obtained in the process was used within 72 hours and samples were stored at 4° C. Telomerase protein extracts are then incubated with a specific oligonucleotide substrate to allow the enzymatic addition of telomeric DNA repeats by endogenous telomerase. Following the enzymatic reaction, telomerase extension products are then amplified and quantified by real-time qPCR. In real time PCR, a positive reaction is detected by accumulation of a fluorescent signal. The Ct (cycle threshold) is defined as the number of cycles required for fluorescence to cross the threshold (i.e.: exceeds background levels). […] Data are reported as relative telomerase activity (RTA). […] Telomeric repeat amplification protocol (TRAP) was modified for quantitative real-time PCR (Q-TRAP) and was used to determine the effect of dibenzyl butyl lactone derivative on telomerase activity in prostate cancer cell. The same methods as used in Example 3 were employed. The same abbreviation scheme as presented in Table 7 is used throughout this example as well.

Sequence of telomerase (O14746 whole entry): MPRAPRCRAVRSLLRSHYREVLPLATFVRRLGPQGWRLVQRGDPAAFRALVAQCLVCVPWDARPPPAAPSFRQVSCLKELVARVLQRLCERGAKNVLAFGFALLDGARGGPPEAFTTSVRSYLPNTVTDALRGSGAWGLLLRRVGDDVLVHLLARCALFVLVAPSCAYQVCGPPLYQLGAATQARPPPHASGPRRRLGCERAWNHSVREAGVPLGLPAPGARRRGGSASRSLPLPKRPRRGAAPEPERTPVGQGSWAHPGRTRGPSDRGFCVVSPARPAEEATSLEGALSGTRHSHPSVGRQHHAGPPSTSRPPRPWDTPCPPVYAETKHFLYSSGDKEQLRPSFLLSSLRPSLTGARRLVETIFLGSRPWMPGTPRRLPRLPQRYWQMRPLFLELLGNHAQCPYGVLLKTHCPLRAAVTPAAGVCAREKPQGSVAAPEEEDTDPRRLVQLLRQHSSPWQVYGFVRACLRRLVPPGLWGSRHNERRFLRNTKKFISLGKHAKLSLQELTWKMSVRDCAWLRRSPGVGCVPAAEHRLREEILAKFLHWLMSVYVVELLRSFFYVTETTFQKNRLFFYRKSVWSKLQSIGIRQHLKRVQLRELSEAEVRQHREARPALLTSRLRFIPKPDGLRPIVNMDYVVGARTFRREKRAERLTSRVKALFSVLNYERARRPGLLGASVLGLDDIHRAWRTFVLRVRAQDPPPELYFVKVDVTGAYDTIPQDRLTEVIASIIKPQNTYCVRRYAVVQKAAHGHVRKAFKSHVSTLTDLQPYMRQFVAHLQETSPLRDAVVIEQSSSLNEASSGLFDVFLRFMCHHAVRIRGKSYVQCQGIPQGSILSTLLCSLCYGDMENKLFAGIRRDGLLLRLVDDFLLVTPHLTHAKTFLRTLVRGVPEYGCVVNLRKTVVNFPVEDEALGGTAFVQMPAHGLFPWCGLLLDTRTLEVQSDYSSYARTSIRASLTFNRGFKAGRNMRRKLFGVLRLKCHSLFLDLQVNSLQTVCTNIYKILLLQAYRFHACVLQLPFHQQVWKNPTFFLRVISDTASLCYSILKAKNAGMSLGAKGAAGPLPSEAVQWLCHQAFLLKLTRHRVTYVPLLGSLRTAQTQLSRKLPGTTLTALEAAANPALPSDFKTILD
Sequence of telomerase (O60832 whole entry partner): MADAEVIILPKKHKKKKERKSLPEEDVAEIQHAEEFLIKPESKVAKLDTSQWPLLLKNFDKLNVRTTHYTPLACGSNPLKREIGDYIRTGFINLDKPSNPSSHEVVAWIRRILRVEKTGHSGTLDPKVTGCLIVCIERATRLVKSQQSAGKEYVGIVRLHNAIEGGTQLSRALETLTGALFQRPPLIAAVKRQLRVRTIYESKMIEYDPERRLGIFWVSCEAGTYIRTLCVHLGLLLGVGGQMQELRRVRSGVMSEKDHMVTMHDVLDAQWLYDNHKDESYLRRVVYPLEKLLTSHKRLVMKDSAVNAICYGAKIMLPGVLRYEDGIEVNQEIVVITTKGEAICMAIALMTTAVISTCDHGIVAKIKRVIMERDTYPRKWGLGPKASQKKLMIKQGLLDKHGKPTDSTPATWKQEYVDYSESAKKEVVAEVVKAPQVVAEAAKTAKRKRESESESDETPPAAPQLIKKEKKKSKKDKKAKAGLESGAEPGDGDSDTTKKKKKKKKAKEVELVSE
Sequence of telomerase (Q9NPE3 whole entry partner): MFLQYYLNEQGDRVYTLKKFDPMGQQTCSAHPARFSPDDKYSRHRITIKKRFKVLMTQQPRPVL
Sequence of telomerase (Q9NX24 whole entry partner): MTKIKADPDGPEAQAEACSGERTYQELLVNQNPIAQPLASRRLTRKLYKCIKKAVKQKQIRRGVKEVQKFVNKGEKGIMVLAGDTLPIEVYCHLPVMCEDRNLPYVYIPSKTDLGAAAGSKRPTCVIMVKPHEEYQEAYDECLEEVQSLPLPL
Sequence of telomerase (Q9NY12 whole entry partner): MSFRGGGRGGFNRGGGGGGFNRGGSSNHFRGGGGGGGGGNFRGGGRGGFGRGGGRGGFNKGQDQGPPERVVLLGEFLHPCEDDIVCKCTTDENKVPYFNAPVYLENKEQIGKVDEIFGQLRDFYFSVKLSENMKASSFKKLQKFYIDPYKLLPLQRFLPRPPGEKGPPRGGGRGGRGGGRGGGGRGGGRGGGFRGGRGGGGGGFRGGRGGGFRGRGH
Sequence of telomerase (Q9BUR4 whole entry partner): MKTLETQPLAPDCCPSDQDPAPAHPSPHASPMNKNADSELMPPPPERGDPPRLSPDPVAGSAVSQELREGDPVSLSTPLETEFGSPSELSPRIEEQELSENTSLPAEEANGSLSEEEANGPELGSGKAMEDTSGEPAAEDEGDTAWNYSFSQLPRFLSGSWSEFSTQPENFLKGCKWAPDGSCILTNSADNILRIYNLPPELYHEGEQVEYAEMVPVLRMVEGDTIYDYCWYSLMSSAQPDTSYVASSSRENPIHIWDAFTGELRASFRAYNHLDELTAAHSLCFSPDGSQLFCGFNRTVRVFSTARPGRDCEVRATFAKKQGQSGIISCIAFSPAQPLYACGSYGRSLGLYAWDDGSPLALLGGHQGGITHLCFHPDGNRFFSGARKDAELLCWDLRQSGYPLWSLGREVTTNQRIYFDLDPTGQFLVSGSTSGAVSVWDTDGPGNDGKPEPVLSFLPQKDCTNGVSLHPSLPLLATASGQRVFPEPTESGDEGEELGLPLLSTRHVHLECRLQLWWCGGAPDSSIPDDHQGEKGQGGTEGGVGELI

Structure (SMILES) | Telomerase Activity RTA (%) (PC3, 2.5 μM, 24 Hours) | Telomerase Activity RTA (%) (PC3, 2.5 μM, 48 Hours) | Telomerase Activity RTA (%) (PC3, 2.5 μM, 72 Hours) | Telomerase Activity RTA (%) (PC3, 5 μM, 24 Hours) | Telomerase Activity RTA (%) (PC3, 5 μM, 48 Hours) | Telomerase Activity RTA (%) (PC3, 5 μM, 72 Hours) | Telomerase Activity RTA (%) (PC3, 10 μM, 24 Hours) | Telomerase Activity RTA (%) (PC3, 10 μM, 48 Hours) | Telomerase Activity RTA (%) (PC3, 10 μM, 72 Hours) | Telomerase Activity RTA (%) (PC3, 20 μM, 24 Hours) | Telomerase Activity RTA (%) (PC3, 20 μM, 48 Hours) | Telomerase Activity RTA (%) (PC3, 20 μM, 72 Hours) | Telomerase Activity RTA (%) (PC3, 40 μM, 24 Hours) | Telomerase Activity RTA (%) (PC3, 40 μM, 48 Hours) | Telomerase Activity RTA (%) (PC3, 40 μM, 72 Hours) | IC50 (PC3, 24 h) | telomerase activity levels of treated groups compared to control (PC3, 24 hours) | Significance of RTA difference vs. control (PC3, 24 hours, 2.5 μM) | Significance of RTA difference vs. control (PC3, 24 hours, 5 μM) | Significance of RTA difference vs. control (PC3, 24 hours, 10 μM) | further results
O=C1OC[C@H](Cc2cccc(O)c2)[C@H]1Cc1cccc(O)c1 (racemic) [Enterolactone, reference compound] | 61.02% | 3.50% | 13.88% | 55.90% | 3.31% | 10.65% | 62.45% | 17.89% | 12.63% | 56.77% | 25.39% | 5.15% | 43.75% | 70.42% | 6.57% | 21.9 µM | lower telomerase activity levels compared to control | No | No | No | Significance of RTA difference vs. control (PC3, 24 hours, 20 μM): No; Significance of RTA difference vs. control (PC3, 24 hours, 40 μM): Yes (*) (Yes (*): p < 0.05); IC50 (PC3, 48 h): 0.05 µM; telomerase activity levels of treated groups compared to control (PC3, 48 hours): four treated groups presented a reduction in RTA; Significance of RTA difference vs. control (PC3, 48 hours, 2.5 μM): Yes (***) (Yes (***): p < 0.001); Significance of RTA difference vs. control (PC3, 48 hours, 5 μM): Yes (***) (Yes (***): p < 0.001); Significance of RTA difference vs. control (PC3, 48 hours, 10 μM): Yes (**) (Yes (**): p < 0.01); Significance of RTA difference vs. control (PC3, 48 hours, 20 μM): Yes (**) (Yes (**): p < 0.01); Significance of RTA difference vs. control (PC3, 48 hours, 40 μM): No; IC50 (PC3, 72 h): 10.7 µM; telomerase activity levels of treated groups compared to control (PC3, 72 hours): no significant differences were detected between control and treated groups; Significance of RTA difference vs. control (PC3, 72 hours, 2.5 μM): No; Significance of RTA difference vs. control (PC3, 72 hours, 5 μM): No; Significance of RTA difference vs. control (PC3, 72 hours, 10 μM): No; Significance of RTA difference vs. control (PC3, 72 hours, 20 μM): No; Significance of RTA difference vs. control (PC3, 72 hours, 40 μM): No
O=C1OCC(Cc2ccc3c(c2)OCO3)/C1=C\c1cccc(O)c1 (single isomer, unassigned) [Enantiomer A, 3-[(3,4-dimethoxyphenyl)cyclopentyl], 4-[(3-hydroxyphenol)methyl]oxolan-2-one] | 49.67% | 21.48% | 18.63% | 44.11% | 7.86% | 15.77% | 20.76% | 3.60% | 19.40% | 22.61% | 2.51% | 5.20% | 29.78% | 6.23% | 1.48% | 5.18 µM | lower telomerase activity levels compared to control | No | Yes (*) (Yes (*): p < 0.05) | Yes (**) (Yes (**): p < 0.01) | Significance of RTA difference vs. control (PC3, 24 hours, 20 μM): Yes (***) (Yes (***): p < 0.001); Significance of RTA difference vs. control (PC3, 24 hours, 40 μM): Yes (**) (Yes (**): p < 0.01); IC50 (PC3, 48 h): 4.71 µM; telomerase activity levels of treated groups compared to control (PC3, 48 hours): lower telomerase activity levels compared to control; Significance of RTA difference vs. control (PC3, 48 hours, 2.5 μM): No; Significance of RTA difference vs. control (PC3, 48 hours, 5 μM): Yes (*) (Yes (*): p < 0.05); Significance of RTA difference vs. control (PC3, 48 hours, 10 μM): Yes (**) (Yes (**): p < 0.01); Significance of RTA difference vs. control (PC3, 48 hours, 20 μM): Yes (**) (Yes (**): p < 0.01); Significance of RTA difference vs. control (PC3, 48 hours, 40 μM): Yes (*) (Yes (*): p < 0.05); IC50 (PC3, 72 h): 18.7 µM; telomerase activity levels of treated groups compared to control (PC3, 72 hours): lower telomerase activity levels compared to control; Significance of RTA difference vs. control (PC3, 72 hours, 2.5 μM): No; Significance of RTA difference vs. control (PC3, 72 hours, 5 μM): Yes (*) (Yes (*): p < 0.05); Significance of RTA difference vs. control (PC3, 72 hours, 10 μM): No; Significance of RTA difference vs. control (PC3, 72 hours, 20 μM): Yes (*) (Yes (*): p < 0.05); Significance of RTA difference vs. control (PC3, 72 hours, 40 μM): Yes (**) (Yes (**): p < 0.01); telomerase inhibition effect: exhibits a telomerase inhibition effect in a PC3 prostate cancer cell line that is more prolonged throughout all time points
O=C1OCC(Cc2ccc3c(c2)OCO3)/C1=C\c1cccc(O)c1 (single isomer, unassigned) [Enantiomer B, 3-[(3,4-dimethoxyphenyl)cyclopentyl], 4-[(3-hydroxyphenol)methyl]oxolan-2-one] | 48.73% | 126.77% | 13.05% | 36.48% | 112.17% | 11.67% | 23.87% | 102.96% | 12.58% | 31.05% | 154.17% | 7.53% | 14.44% | 128.83% | 13.49% | 2.99 µM | lower telomerase activity levels compared to control | Yes (*) (Yes (*): p < 0.05) | Yes (**) (Yes (**): p < 0.01) | Yes (**) (Yes (**): p < 0.01) | Significance of RTA difference vs. control (PC3, 24 hours, 20 μM): Yes (**) (Yes (**): p < 0.01); Significance of RTA difference vs. control (PC3, 24 hours, 40 μM): Yes (***) (Yes (***): p < 0.001); IC50 (PC3, 48 h): 15.4 µM; telomerase activity levels of treated groups compared to control (PC3, 48 hours): the differences were not found to be significant; Significance of RTA difference vs. control (PC3, 48 hours, 2.5 μM): No; Significance of RTA difference vs. control (PC3, 48 hours, 5 μM): No; Significance of RTA difference vs. control (PC3, 48 hours, 10 μM): No; Significance of RTA difference vs. control (PC3, 48 hours, 20 μM): No; Significance of RTA difference vs. control (PC3, 48 hours, 40 μM): No; IC50 (PC3, 72 h): 2.38 µM; telomerase activity levels of treated groups compared to control (PC3, 72 hours): without any particular differences between the treated and control groups; Significance of RTA difference vs. control (PC3, 72 hours, 2.5 μM): No; Significance of RTA difference vs. control (PC3, 72 hours, 5 μM): No; Significance of RTA difference vs. control (PC3, 72 hours, 10 μM): No; Significance of RTA difference vs. control (PC3, 72 hours, 20 μM): Yes (*) (Yes (*): p < 0.05); Significance of RTA difference vs. control (PC3, 72 hours, 40 μM): No; telomerase inhibition effect: exhibits a telomerase inhibition effect at 24 hours

From patent publication US20250000843A1, “LIGNAN-INSPIRED COMPOUNDS, METHODS OF MAKING, AND USING THEREOF” (IOWAIBO, INC., priority 2023, published 2025)
